Drawing on PubChem BioAssay AID1259408 (Genetic Toxicology Data Bank (GENE-TOX), 2018), this text covers mutagenic call and call for 36 compounds.

This data set relates to GENE-TOX genotoxicity assays, various organisms and cells. As to the kind of experiment: GENE-TOX mutagenicity studies. The settings on record: for call: Assay Type: In vivo carcinogenicity studies.
Setting [1] is: Species/Cell Type: Mammalian polychromatic erythrocytes, Assay Type: Micronucleus test, chromosome aberrations, Assay Code: MNT+, Evaluation Type: Evaluation B (Post-1980).
[2] abbreviates: Species/Cell Type: Salmonella typhimurium, Assay Type: Forward and reverse gene mutation, host-mediated assay, Assay Code: HMA+, Evaluation Type: Evaluation A (Pre-1980).
Setting [3] is: Species/Cell Type: Chinese hamster lung (V79) cells, Assay Type: Forward gene mutation at the HPRT or ouabain locus, Assay Code: V79+, Evaluation Type: Evaluation A (Pre-1980).
[4] abbreviates: Species/Cell Type: Human lymphocytes, Assay Type: Sister-chromatid exchange (SCE) in vitro, Assay Code: SCL+D, Dose Response: With dose response, Evaluation Type: Evaluation B (Post-1980).
[5] abbreviates: Species/Cell Type: Human, Assay Type: Sister-chromatid exchange (SCE) in vitro, Assay Code: SC1+D, Dose Response: With dose response, Evaluation Type: Evaluation B (Post-1980).
The mark [6] stands for this setting: Species/Cell Type: Nonhuman, Assay Type: Sister-chromatid exchange (SCE) in vitro, Assay Code: SC2+, Evaluation Type: Evaluation B (Post-1980).
Setting [7] is: Species/Cell Type: Salmonella typhimurium (one or more of the five standard strains: TA98, TA100, TA1535, TA1537, and TA1538), Assay Type: Histidine reverse gene mutation, Ames assay, Assay Code: SAL+, Evaluation Type: Evaluation A (Pre-1980).
Where [8] appears, read: Species/Cell Type: Salmonella typhimurium (one or more of the five standard strains: TA98, TA100, TA1535, TA1537, and TA1538), Assay Type: Histidine reverse gene mutation, Ames assay, Assay Code: SALT, Evaluation Type: Evaluation A (Pre-1980).
Setting [9] is: Species/Cell Type: Saccharomyces cerevisiae, Assay Type: Mitotic recombination or gene conversion, Assay Code: YEC-, Evaluation Type: Evaluation A (Pre-1980).
The mark [10] stands for this setting: Species/Cell Type: Syrian hamster embryo (SHE) cells, Assay Type: Cell transformation, clonal assay, Assay Code: CTC+, Evaluation Type: Evaluation A (Pre-1980).
Setting [11] is: Species/Cell Type: Human lymphocytes, Assay Type: Sister-chromatid exchange (SCE) in vitro, Assay Code: SCLT, Evaluation Type: Evaluation B (Post-1980).
[12] abbreviates: Species/Cell Type: Human, Assay Type: Sister-chromatid exchange (SCE) in vitro, Assay Code: SC1T, Evaluation Type: Evaluation B (Post-1980).

Calls of active or inactive are those of the source. No rule for the calls is given here.

On to `Clc1cccc(Cl)c1`, for which, under setting [1], the mutagenic call was “active; positive”.

In the case of `CC(=O)OCN(C)N=O`, the mutagenic call under setting [2] is “active; positive”. As for `C=CC(=O)OCC`, under setting [1], the mutagenic call is “active; positive”. As for `O[C@@H]1c2ccc3cc4ccccc4cc3c2[C@@H]2OC2[C@@H]1O` (some centres undefined), the mutagenic call under setting [3] is “active; positive”. Consider `COc1cc(-c2ccc(-[n+]3nc(-c4ccccc4)nn3-c3ccc([N+](=O)[O-])cc3)c(OC)c2)ccc1-[n+]1nc(-c2ccccc2)nn1-c1ccc([N+](=O)[O-])cc1`, for which the mutagenic call (Species/Cell Type: Bacillus subtilis (H17 vs M45T), Assay Type: Rec-assay, spot test, DNA effects (bacterial DNA repair), Assay Code: REXT, Evaluation Type: Evaluation A (Pre-1980)) is recorded as “no conclusion”. Consider `C#C[C@]1(OC(C)=O)CC[C@H]2[C@@H]3CCC4=CC(=O)CC[C@@H]4[C@H]3CC[C@@]21C`, for which the mutagenic call (Species/Cell Type: Rodents, Sex: Male, Assay Type: Dominant lethal test, Assay Code: DLTT, Evaluation Type: Evaluation A (Pre-1980)) is “no conclusion”.

`CN(C)c1ccc(N=NS(=O)(=O)O)cc1`: the mutagenic call is, setting by setting: (Species/Cell Type: Bacillus subtilis (H17 vs M45), Assay Type: Rec-assay, spot test, DNA effects (bacterial DNA repair), Assay Code: REW+, Evaluation Type: Evaluation A (Pre-1980)) “active; positive”; (Species/Cell Type: Escherichia coli WP2, Assay Type: Tryptophan reverse gene mutation, Assay Code: WP2+, Evaluation Type: Evaluation A (Pre-1980)) “active; positive”; (Species/Cell Type: Escherichia coli WP2 UVRA, Assay Type: Tryptophan reverse gene mutation, Assay Code: WPU+, Evaluation Type: Evaluation A (Pre-1980)) “active; positive”; under setting [4], “active; positive”; under setting [5], “active; positive”; under setting [6], “active; positive”. Moreover, the mutagenic call under setting [7] was “active; positive”. For the same compound, the call (Species/Cell Type: Nonhuman, Assay Code: CCG-, Evaluation Type: Evaluation A (Pre-1980)) is “inactive; negative”.

Turning to `CC(=O)c1cc([N+](=O)[O-])c[nH]1`, the mutagenic call under setting [8] is given as “no conclusion”. As to `Clc1cc2oc3cc(Cl)c(Cl)cc3c2cc1Cl`, the mutagenic call is, setting by setting: (Species/Cell Type: Saccharomyces cerevisiae, Assay Type: Forward gene mutation, Assay Code: YEF-, Evaluation Type: Evaluation A (Pre-1980)) “inactive; negative”; under setting [9], “inactive; negative”; (Species/Cell Type: Saccharomyces cerevisiae, Assay Type: Mitotic recombination or gene conversion, Assay Code: YEH-, Evaluation Type: Evaluation A (Pre-1980)) “inactive; negative”. Regarding `c1ccc2c(c1)cc1ccc3cccc4c5ccccc5c2c1c34`, under “Species/Cell Type: Nonhuman, Assay Code: CCG+, Evaluation Type: Evaluation A (Pre-1980)”, the call was “active; positive”. Regarding `[Cd]`, the mutagenic call (Species/Cell Type: Human lymphocytes or leukocytes, Assay Type: Chromosome aberrations in vivo, Assay Code: CY8T, Evaluation Type: Evaluation A (Pre-1980)) is listed as “no conclusion”. Moreover, the call (Species/Cell Type: Nonhuman, Assay Code: CCG+L, Evaluation Type: Evaluation A (Pre-1980)) was “active; positive”. As for `CC(C)CCC[C@@H](C)[C@H]1CC[C@H]2[C@@H]3C[C@@H]4O[C@@]45C[C@@H](O)CC[C@]5(C)[C@H]3CC[C@]12C`, the mutagenic call under setting [10] was “active; positive”. As for `CC(C)NCC(O)COc1cccc2[nH]ccc12` (centres undefined), the mutagenic call (Species/Cell Type: Mammalian polychromatic erythrocytes, Assay Type: Micronucleus test, chromosome aberrations, Assay Code: MNTT, Evaluation Type: Evaluation B (Post-1980)) is “no conclusion”. In the case of `CCCCN(COC(C)=O)N=O`, the mutagenic call was “active; positive” under setting [7] and “active; positive” under setting [10]. With `CN1CCN(N=O)CC1`, the mutagenic call under setting [3] is “active; positive”; the mutagenic call (Species/Cell Type: Drosophila melanogaster, Assay Type: Sex-linked recessive lethal gene mutation, Assay Code: SRL+, Evaluation Type: Evaluation A (Pre-1980)) is “active; positive”; the mutagenic call under setting [8] is listed as “no conclusion”; the mutagenic call under setting [2] was “active; positive”. `Cc1cc2c3c(ccc2c2ccccc12)C(=O)CC3`: the mutagenic call under setting [8] is recorded as “no conclusion”. Same read-out and setting: under `CC(=O)OCN(Cc1ccccc1)N=O` stands “no conclusion”. Regarding `CCC(C)=O`, the mutagenic call (Species/Cell Type: Bacillus subtilis (H17 vs M45), Assay Type: Rec-assay, spot test, DNA effects (bacterial DNA repair), Assay Code: REWT, Evaluation Type: Evaluation A (Pre-1980)) is given as “no conclusion” and the mutagenic call (Species/Cell Type: Mammalian polychromatic erythrocytes, Assay Type: Micronucleus test, chromosome aberrations, Assay Code: MNT-, Evaluation Type: Evaluation B (Post-1980)) was “inactive; negative”. On to `CC(CN(C)C)CN1c2ccccc2CCc2ccccc21` (centres undefined), for which, for the setting “Species/Cell Type: Human, Sex: Male, Assay Type: Sperm morphology, Assay Code: SPHT, Evaluation Type: Evaluation A (Pre-1980)”, the mutagenic call is “no conclusion”. Regarding `NC(=O)N1c2ccccc2C=Cc2cc(O)ccc21`, the mutagenic call is listed as “no conclusion” under setting [11] and “no conclusion” under setting [12]. In the case of `Oc1ccc(O)cc1`, the mutagenic call is “active; positive” (Species/Cell Type: Allium cepa, Assay Type: Chromosome aberrations, Assay Code: ALC+, Evaluation Type: Evaluation A (Pre-1980)); “active; positive” under setting [4]; “active; positive” under setting [5]; “active; positive” under setting [1]. For `Cc1ccc(N2CCN(C)CC2)c2c(=O)c3ccc(Cl)cc3sc12`, the mutagenic call under setting [8] is on record as “no conclusion”. As to `c1cncc([C@@H]2CCCN2)c1`, the mutagenic call under setting [6] is “active; positive”. Turning to `CCC1=C(O)C(=O)CC1`, the mutagenic call is, setting by setting: under setting [11], “no conclusion”; under setting [12], “no conclusion”. In the case of `N#Cc1c(Cl)cccc1Cl`, the mutagenic call under setting [9] is “inactive; negative”. On to `CC(=O)N(O)c1ccc(-c2ccccc2)cc1`, for which the mutagenic call (Species/Cell Type: Human diploid fibroblasts, Assay Type: Unscheduled DNA synthesis (UDS) in vitro, DNA effects, Assay Code: UDH+, Evaluation Type: Evaluation A (Pre-1980)) was “active; positive” and the mutagenic call under setting [6] is “active; positive”. Turning to `Cc1cc2cc3ccccc3cc2c2ccccc12`, the mutagenic call by setting is: (Species/Cell Type: Nonhuman, Assay Type: Sister-chromatid exchange (SCE) in vitro, Assay Code: SC2+D, Dose Response: With dose response, Evaluation Type: Evaluation B (Post-1980)) “active; positive”; (Species/Cell Type: Salmonella typhimurium (one or more of the five standard strains: TA98, TA100, TA1535, TA1537, and TA1538), Assay Type: Histidine reverse gene mutation, Ames assay, Assay Code: SAL+*, Activation: With metabolic activation, Evaluation Type: Evaluation A (Pre-1980)) “active; positive”. Take `CCCN(N=O)/C(N)=N/[N+](=O)[O-]`: the mutagenic call reads like this: (Species/Cell Type: Arabidopsis species, Assay Type: Gene mutation, Assay Code: ARM+, Evaluation Type: Evaluation A (Pre-1980)) “active; positive”; under setting [7], “active; positive”.

As for `O=C([O-])[O-].[Cd+2]`, under setting [6], the mutagenic call was “active; positive”. Regarding `C=CCNC(=O)OC1(Sc2ccccc2)C(=O)c2ccccc2C1=O`, the mutagenic call (Species/Cell Type: Salmonella typhimurium, Assay Type: Forward and reverse gene mutation, host-mediated assay, Assay Code: HMAT, Evaluation Type: Evaluation A (Pre-1980)) is on record as “no conclusion”. On to `CN(CCCC(=O)O)N=O`, for which the mutagenic call under setting [8] was “no conclusion”. Regarding `COc1cc(=O)oc(/C=C/C=C/C=C/C(C)=C/[C@]2(C)O[C@H](C)[C@](C)(O)[C@H]2O)c1C`, the mutagenic call (Species/Cell Type: Bacillus subtilis (H17 vs M45), Assay Type: Rec-assay, spot test, DNA effects (bacterial DNA repair), Assay Code: REW-, Evaluation Type: Evaluation A (Pre-1980)) is “inactive; negative”. `CC(Cl)CCl` (centres undefined): under setting [7], the mutagenic call was “active; positive”. Regarding `OCC(Br)(Br)Br`, the mutagenic call is, setting by setting: (Species/Cell Type: Rodents, Sex: Female, Assay Type: Dominant lethal test, Assay Code: DLTF-, Evaluation Type: Evaluation A (Pre-1980)) “inactive; negative”; (Species/Cell Type: Rodents, Sex: Male, Assay Type: Dominant lethal test, Assay Code: DLT-, Evaluation Type: Evaluation A (Pre-1980)) “inactive; negative”. As to `CCCCOCCOCCOCc1cc2c(cc1CCC)OCO2`, the call (Species/Cell Type: Nonhuman, Assay Code: CCG-L, Evaluation Type: Evaluation A (Pre-1980)) is “inactive; negative”. As for `CN1C(=O)CN=C(c2ccccc2)c2cc(Cl)ccc21`, the mutagenic call by setting is: (Species/Cell Type: Human lymphocytes, Assay Type: Sister-chromatid exchange (SCE) in vivo, Assay Code: SCY+, Evaluation Type: Evaluation B (Post-1980)) “active; positive”; under setting [12], “no conclusion”; (Species/Cell Type: Mammalian polychromatic erythrocytes, Assay Type: Micronucleus test, chromosome aberrations, Assay Code: MNTT, Evaluation Type: Evaluation A (Pre-1980)) “no conclusion”; under setting [8], “no conclusion”; (Species/Cell Type: Salmonella typhimurium, Assay Type: Forward and reverse gene mutation, body fluid assay, Assay Code: BFU+, Evaluation Type: Evaluation A (Pre-1980)) “active; positive”.
